Assay results: publication PMC10703885 (Cell Death & Disease, 2023)
Like-named read-outs stand apart in the source and are kept apart here.

Key:
HCT116 cells [1] = assay: CCK-8 cell viability assay; assay type: cell-based; conditions: for IC50: Homo sapiens
Procedure: (§1) The cells were cultured in 96-well plates at a density of 5 × 10^3 cells/well. Cell viability was assessed with CCK-8 Kit at indicated time post-treatment according to the manufacturer’s instructions. To estimate the viability of the cells, the absorbance of 450 nm (OD450) was measured with a Microplate Reader (BIO-TEK, Inc., Winooski, VT, United States). The IC50 value was calculated by GraphPad Prism 8.0 (San Diego, CA, United States) software.

HT29 cells [2] = assay: CCK-8 cell viability assay; assay type: cell-based; conditions: Homo sapiens, HT-29, 72 h
Procedure: as §1

[3] = test system: normal renal epithelial 293T cells; assay: CCK-8 cell viability assay (normal cells); assay type: cell-based; conditions: low concentration of HR488B (0.1-1 μM), 72 h
Procedure: as §1

HCT116 xenograft = HCT116 xenograft model in nude mice; assay type: in vivo, BALB/c nude mice
Procedure: (§2) Male BALB/c nude mice (5–6 weeks) were purchased from the Jiesijie Experimental Animal Co. Ltd (Shanghai, China). All mice were maintained under SPF conditions and at constant temperature (25 °C) and relative humidity (65%) with a 12 h light/dark cycle. HCT116 cells (1 × 10^6) were inoculated into 6–7 weeks-old mice subcutaneously. Tumor volumes were evaluated by calipers and calculated using the standard formula: volume = length × width^2 × 0.5. Once tumor volume exceeded approximately 100 mm^3. […] Tumor volume was measured every 2 days. The protocols for animal care and euthanasia were approved by the Institutional Animal Care and Use Committee of Shanghai Ocean University (Shanghai, China).

[4] = Body weight of xenograft mice; assay type: in vivo, BALB/c nude mice; conditions: 10 mg/kg/d ip over 21 days
Procedure: as §2

HCT116 cells [5] = assay: Colony formation assay; assay type: cell-based; conditions: HCT116, 0.2, 0.5 and 1 μM, 14 days
Procedure: (§3) The culture medium was refreshed every other day. Cells were then continuously incubated in a new fresh medium for 10–14 days, the colonies were fixed with methanol for 15 min, stained with 0.5% crystal violet for 15 min, and photographed. Colonies were manually counted using ImageJ software.

HT29 cells [6] = assay: Colony formation assay; assay type: cell-based; conditions: HT29, 0.2, 0.5 and 1 μM, 14 days
Procedure: as §3

[7] = test system: acetylated H3/H4 protein in HCT116 cells; assay: Western blot of acetylated H3/H4; assay type: cell-based; conditions: HCT116, 0.2, 0.5 and 1 μM, 24 h, compared with SAHA 1 μM
Procedure: (§4) Western blot analysis was performed as in our previous reports. The cells were lysed in RIPA buffer with a complete protease inhibitor cocktail for 10 min on ice followed by centrifugation at 4 °C. The concentration of proteins was determined by the BCA Protein Kit (TIANGEN, Shanghai, China). Equal amounts of total proteins were resuspended in loading buffer, boiled at 100 °C for 5 min, and separated by 10–15% […] gel electrophoresis (SDS-PAGE). Proteins were transferred onto PVDF membranes (Merck Millipore, #IPFL00010, Germany), then the membranes were blocked with 5% non-fat dry milk, and the membranes were incubated with indicated primary antibodies diluted in BSA buffer, overnight at 4 °C. The membranes were washed three times in TBST followed by 1 h incubation with secondary antibodies conjugated with horseradish peroxidase (HRP) at room temperature. Then the membranes were washed before enhanced chemiluminescence. Immunoblots were visualized with the Bio-Rad ChemiDoc XRS system. Quantification was directly performed on the blot using the Image Lab software.

[8] = test system: acetylated H3/H4 protein in HT29 cells; assay: Western blot of acetylated H3/H4; assay type: cell-based; conditions: HT29, 0.2, 0.5 and 1 μM, 24 h, compared with SAHA 1 μM
Procedure: as §4

SMILES | inhibitory effect on cell viability (in-house HDACi library screen) (HCT116 cells [1]; HCT116 cells, 2.5 μM, 72 h, CCK-8) | IC50 (HCT116 cells [1]; HCT-116, HCT116 cells, 72 h, CCK-8, read-out: IC50) [nM] | IC50 (HT29 cells [2]) [nM] | cellular toxicity of 293T cells [3] | average tumor weight (HCT116 xenograft; 10 mg/kg ip, compared with control and SAHA-treated group) | tumor volume (HCT116 xenograft; 10 mg/kg/d ip over 21 days, compared with control group and SAHA treatment group) | body weight of mice [4] | number and size of colonies (HCT116 cells [5]) | number and size of colonies (HT29 cells [6]) | acetylation of H3 and H4 [7] | acetylation of H3 and H4 [8] | IC50 (HCT116 cells [1]; HCT-116, 72 h) [nM]
COc1ccc(N(Cc2nc(-c3ccccc3Cl)cs2)C(=O)CCCCCC(=O)NO)cc1 [HR488B] | optimum inhibitory effect | 170 | 590 | did not observe any significant cellular toxicity | obviously lower | marked reduction in tumor volume | did not decrease notably | obviously reduced the number and size of the colonies | obviously reduced the number and size of the colonies | significantly increased the acetylation of H3 and H4 in a dose-dependent manner | significantly increased the acetylation of H3 and H4 in a dose-dependent manner | 
O=C(CCCCCCC(=O)Nc1ccccc1)NO [SAHA, reference compound] |  |  |  |  |  |  | did not decrease notably |  |  |  |  | 2130
